# What was measured:
# Met kinase [1] = target: T1, Met kinase (Homo sapiens, UniProt P08581); test: Met kinase inhibition, flashplate method (enzyme); type: biochemical; parameters: 6His (N); purchased Upstate 14-526; host or cells: Sf21 insect cells (S. frugiperda), baculovirus
# From the text: Measurement of Met Kinase Activity
# According to the manufacturer's data (Met, active, upstate, catalogue No. 14-526), Met kinase is expressed for the purposes of protein production in insect cells (Sf21; S. frugiperda) and subsequent affinity-chromatographic purification as “N-terminal 6His-tagged” recombinant human protein in a baculovirus expression vector.
# Flashplate Method (Met Kinase)
# The test plates used are 96-well Flashplate® microtitre plates from Perkin Elmer (Cat. No. SMP200). The components of the kinase reaction described below are pipetted into the assay plate. The Met kinase and the substrate poly Ala-Glu-Lys-Tyr, (pAGLT, 6:2:5:1), are incubated for 3 hrs at room temperature with radioactively labelled ^33P-ATP in the presence and absence of test substances in a total volume of 100 μl. The reaction is terminated using 150 μl of a 60 mM EDTA solution. After incubation for a further 30 min at room temperature, the supernatants are filtered off with suction, and the wells are washed three times with 200 μl of 0.9% NaCl solution each time. The measurement of the bound radioactivity is carried out by means of a scintillation measuring instrument (Topcount NXT, Perkin-Elmer).
# The full value used is the inhibitor-free kinase reaction. This should be approximately in the range 6000-9000 cpm. […] The inhibitory values (IC50) are determined using the RS1_MTS program. […]
# Target sequence in this assay (P08581 974-1390 limits assumed): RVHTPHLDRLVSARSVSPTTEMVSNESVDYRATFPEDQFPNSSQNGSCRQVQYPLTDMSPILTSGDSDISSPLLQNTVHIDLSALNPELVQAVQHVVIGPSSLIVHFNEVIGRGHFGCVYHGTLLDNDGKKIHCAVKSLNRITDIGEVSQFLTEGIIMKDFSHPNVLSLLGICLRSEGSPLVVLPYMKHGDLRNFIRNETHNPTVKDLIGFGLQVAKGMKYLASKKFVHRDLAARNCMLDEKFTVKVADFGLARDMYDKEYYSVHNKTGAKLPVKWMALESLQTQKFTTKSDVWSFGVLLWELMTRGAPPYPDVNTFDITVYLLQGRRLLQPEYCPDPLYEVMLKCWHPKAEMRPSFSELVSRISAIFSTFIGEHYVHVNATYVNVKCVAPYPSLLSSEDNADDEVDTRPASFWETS
# Met kinase [2] = target: T1, Met kinase; test: Met kinase inhibition (cell); type: cell-based
# Target sequence in this assay (P08581 25-1390): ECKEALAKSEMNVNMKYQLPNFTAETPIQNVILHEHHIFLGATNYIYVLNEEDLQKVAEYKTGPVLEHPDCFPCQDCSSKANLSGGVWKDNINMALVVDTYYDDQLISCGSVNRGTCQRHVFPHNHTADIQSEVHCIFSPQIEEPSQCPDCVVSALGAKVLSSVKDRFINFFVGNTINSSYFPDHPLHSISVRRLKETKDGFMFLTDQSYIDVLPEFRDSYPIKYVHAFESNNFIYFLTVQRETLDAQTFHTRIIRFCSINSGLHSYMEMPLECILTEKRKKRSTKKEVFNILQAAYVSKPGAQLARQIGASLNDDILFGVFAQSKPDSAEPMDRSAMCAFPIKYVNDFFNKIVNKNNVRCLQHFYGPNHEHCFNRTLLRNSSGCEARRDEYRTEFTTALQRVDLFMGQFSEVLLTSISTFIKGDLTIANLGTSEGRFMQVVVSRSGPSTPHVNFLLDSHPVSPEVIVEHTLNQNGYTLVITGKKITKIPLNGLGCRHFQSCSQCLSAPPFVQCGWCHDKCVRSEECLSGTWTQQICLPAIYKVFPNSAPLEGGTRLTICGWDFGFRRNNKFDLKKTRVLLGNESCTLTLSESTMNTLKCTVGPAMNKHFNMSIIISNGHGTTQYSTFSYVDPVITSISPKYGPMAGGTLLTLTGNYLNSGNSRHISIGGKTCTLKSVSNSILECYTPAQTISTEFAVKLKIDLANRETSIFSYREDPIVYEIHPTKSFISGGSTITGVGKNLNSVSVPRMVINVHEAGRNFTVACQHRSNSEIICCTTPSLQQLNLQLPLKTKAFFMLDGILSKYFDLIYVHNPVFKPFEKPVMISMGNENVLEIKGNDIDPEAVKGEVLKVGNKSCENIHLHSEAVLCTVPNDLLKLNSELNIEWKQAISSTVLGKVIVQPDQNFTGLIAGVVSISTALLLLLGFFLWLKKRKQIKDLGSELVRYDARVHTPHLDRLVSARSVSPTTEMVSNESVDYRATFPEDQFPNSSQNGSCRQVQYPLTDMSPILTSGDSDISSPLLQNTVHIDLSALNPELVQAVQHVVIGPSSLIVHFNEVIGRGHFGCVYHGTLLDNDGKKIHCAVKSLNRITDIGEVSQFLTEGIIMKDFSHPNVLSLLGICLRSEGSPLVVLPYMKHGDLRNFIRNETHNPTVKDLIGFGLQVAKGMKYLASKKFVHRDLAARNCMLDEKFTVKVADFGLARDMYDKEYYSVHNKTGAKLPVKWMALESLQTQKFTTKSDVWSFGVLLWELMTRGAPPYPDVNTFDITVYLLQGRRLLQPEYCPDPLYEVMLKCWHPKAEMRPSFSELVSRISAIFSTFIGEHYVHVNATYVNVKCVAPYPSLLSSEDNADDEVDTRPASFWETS
SMILES,IC50 (Met kinase [1]),IC50 (Met kinase [2])
"Cc1ccc(-c2cccc(Cn3nc(-c4cc(F)cc(F)c4)ccc3=O)n2)nc1 [Compound A1, 6-(3,5-difluorophenyl)-2-(5′-methyl-[2,2′]bipyridinyl-6-ylmethyl)-2H-pyridazin-3-one]",0.01 to 1 µM,1 to 10 µM
"N#Cc1cccc(-c2ccc(=O)n(Cc3cccc(-c4ncc(-c5cnn(CCN6CCCC6)c5)cn4)n3)n2)c1 [Compound A2, 3-[6-oxo-1-(6-{5-[1-(2-pyrrolidin-1-ylethyl)-1H-pyrazol-4-yl]pyrimidin-2-yl}pyridin-2-ylmethyl)-1,6-dihydropyridazin-3-yl]benzonitrile]",–,0.01 to 1 µM

# Source: US8604036B2, “Pyridazinone derivatives” (Merck Patent GmbH, priority 2008, dated 2013)
